Results on one compound are retold here after publication PMC5826917, “A small molecule inhibitor of Nicotinamide N-methyltransferase for the treatment of metabolic disorders” (Scientific Reports, 2018).

The target in assay [1] is Muscarinic Receptor 1 (CHRM1) (Homo sapiens, UniProt P11229). Description: Selectivity panel: CHRM1. In kind it is cell-based. Here is the method: (§1) Supplement 41598_2018_22081_MOESM1_ESM.docx, table 2: Supplementary table 2: Selectivity profile of JBSNF-000088 (at 10 µM) vs a panel of 34 receptors, channels and enzymes. | column: E% (agonistic); I% (antagonistic or inhibitory)
Chain of Muscarinic Receptor 1 (CHRM1) (P11229 whole entry): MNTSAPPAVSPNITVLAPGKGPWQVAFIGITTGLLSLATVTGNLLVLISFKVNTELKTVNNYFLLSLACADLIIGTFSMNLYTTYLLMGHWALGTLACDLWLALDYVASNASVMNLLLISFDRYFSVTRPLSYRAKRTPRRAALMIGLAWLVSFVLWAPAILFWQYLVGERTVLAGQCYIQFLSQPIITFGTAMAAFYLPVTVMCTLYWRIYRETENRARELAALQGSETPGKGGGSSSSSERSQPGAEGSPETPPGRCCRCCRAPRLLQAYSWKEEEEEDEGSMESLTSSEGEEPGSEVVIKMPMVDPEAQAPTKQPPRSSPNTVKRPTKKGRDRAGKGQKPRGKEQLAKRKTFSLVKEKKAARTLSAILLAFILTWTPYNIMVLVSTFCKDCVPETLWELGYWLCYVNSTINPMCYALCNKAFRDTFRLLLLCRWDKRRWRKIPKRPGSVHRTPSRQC

The target in assay [2] is Dopamine Receptor 2 Short (D2S) (Homo sapiens, UniProt P14416). Put plainly: Selectivity panel: D2S. In kind it is cell-based. The protocol:
as §1

The target in assay [3] is adrenergic, alpha-1A-, receptor (ADRA1A) (Homo sapiens, UniProt P35348). Put plainly: Selectivity panel: ADRA1A. In kind it is cell-based. Here is the method:
as §1

In assay [4] the target is Muscarinic Receptor 3 (CHRM3) (Homo sapiens, UniProt P20309). Description: Selectivity panel: CHRM3. In kind it is cell-based. Here is the method:
as §1

Assay [5] relates to wild-type and NNMT knockout mice on HFD. The source says: NNMT fl/fl mice on a C57BL/6 background were generated by Regeneron Pharmaceuticals (Tarrytown, NY) using VelociGene® technology. A loxP locus was placed 1.6 kb upstream of the transcription starting site encompassing the gene promoter. A loxP-Frt-Hyg-Frt cassette was inserted 212 bp downstream of NNMT exon 1. The floxed coordinates were chr9:48,412,881–48,414,698. NNMT fl/fl mice were crossed with ZP3-cre mice (C57BL/6, Jackson Laboratories) to generate whole-body NNMT knockout mice. The DIO mouse study was conducted in accordance to the German Animal Protection Law, as well as according to international animal welfare legislation and rules. Female wild-type and NNMT knockout animals were put on high-fat diet (Ssniff HFD adjusted TD.97366) for 18 weeks and then treated with either JBSNF-000088 (50 mg/kg bid by oral gavage) or vehicle for four weeks (n = 9–10 per group). Throughout the study, Mice were housed in an environmentally controlled room at 23 °C on a 12 h:12 h light dark cycle (light on at 06:00 AM), and food and water was offered ad libitum. An oral glucose tolerance test was performed on day 25 of treatment: Animals were fasted overnight. 60 minutes before an oral glucose bolus (2 g kg^−1), JBSNF-000088 (50 mg kg^−1) or vehicle (0.5% HEC + 0.5% Tween80) was administered by oral gavage. For blood glucose analysis, blood was collected from the tail of conscious mice at time points 15, 30, 60 and 120 minutes after the glucose bolus.

A further assay relates to Na+/K+ ATPase Pump. Description: Selectivity panel: Na+/K+ ATPase. In kind it is biochemical. Conditions: 10 µM.

Chain of adrenergic, alpha-1A-, receptor (ADRA1A) (P35348 whole entry): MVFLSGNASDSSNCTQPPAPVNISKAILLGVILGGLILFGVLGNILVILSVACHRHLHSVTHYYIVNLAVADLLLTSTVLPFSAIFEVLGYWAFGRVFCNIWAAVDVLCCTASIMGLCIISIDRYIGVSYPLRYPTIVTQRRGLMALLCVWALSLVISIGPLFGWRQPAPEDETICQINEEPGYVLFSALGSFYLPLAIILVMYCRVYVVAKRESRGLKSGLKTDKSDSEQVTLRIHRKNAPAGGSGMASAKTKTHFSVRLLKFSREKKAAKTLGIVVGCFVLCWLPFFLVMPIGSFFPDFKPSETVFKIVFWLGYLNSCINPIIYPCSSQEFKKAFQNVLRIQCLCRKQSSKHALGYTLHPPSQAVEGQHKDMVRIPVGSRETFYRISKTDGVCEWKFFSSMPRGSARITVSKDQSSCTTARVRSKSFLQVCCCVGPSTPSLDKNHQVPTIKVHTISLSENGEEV
Chain of Dopamine Receptor 2 Short (D2S) (P14416 1-414 isoform P14416-2): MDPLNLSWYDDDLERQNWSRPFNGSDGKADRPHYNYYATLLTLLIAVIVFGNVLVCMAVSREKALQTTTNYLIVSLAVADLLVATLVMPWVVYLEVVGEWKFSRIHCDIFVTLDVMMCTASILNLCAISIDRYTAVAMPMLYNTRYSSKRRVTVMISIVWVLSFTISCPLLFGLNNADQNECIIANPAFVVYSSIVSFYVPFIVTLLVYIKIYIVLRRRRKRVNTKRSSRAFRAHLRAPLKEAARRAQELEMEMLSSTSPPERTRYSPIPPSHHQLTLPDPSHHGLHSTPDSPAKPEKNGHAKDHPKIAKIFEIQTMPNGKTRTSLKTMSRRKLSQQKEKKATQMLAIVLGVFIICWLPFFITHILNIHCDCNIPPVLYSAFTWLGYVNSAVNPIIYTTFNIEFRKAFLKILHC
Chain of Muscarinic Receptor 3 (CHRM3) (P20309 whole entry): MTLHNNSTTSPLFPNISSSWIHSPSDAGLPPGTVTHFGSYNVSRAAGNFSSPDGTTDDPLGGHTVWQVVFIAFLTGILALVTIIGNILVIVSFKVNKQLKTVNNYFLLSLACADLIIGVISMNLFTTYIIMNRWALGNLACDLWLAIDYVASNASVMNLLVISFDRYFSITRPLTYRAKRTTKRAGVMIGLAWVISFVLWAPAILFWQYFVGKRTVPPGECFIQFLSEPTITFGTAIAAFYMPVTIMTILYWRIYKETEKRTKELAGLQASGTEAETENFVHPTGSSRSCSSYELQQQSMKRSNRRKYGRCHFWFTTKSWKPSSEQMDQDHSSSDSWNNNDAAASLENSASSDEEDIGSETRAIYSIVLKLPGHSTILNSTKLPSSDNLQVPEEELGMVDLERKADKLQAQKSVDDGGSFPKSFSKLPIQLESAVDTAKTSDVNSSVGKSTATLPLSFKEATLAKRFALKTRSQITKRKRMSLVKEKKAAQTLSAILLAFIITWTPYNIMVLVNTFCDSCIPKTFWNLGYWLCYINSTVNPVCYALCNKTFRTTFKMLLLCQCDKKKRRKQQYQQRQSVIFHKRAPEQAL

Consider `COc1ccc(C(N)=O)cn1` [JBSNF-000088, 6-methoxynicotinamide], for which the “E% (agonistic), CHRM1” value in assay [1] (10 µM) is given as -3%. In addition, the inhibition at 10 µM in assay [1] (read-out: I% (antagonistic or inhibitory), CHRM1) was -7%; in assay [2] (read-out: I% (antagonistic or inhibitory), D2S) it was 12%; in assay [3] (read-out: I% (antagonistic or inhibitory), ADRA1A), -3%; in assay [4] (read-out: I% (antagonistic or inhibitory), CHRM3), 21%. Further, the “E% (agonistic), D2S” value in assay [2] (10 µM) is -3%. Moreover, in assay [3] (10 µM), the “E% (agonistic), ADRA1A” value was -2%. Further, the “E% (agonistic), CHRM3” value in assay [4] (10 µM) was -1%. Besides, in assay [5] (NNMT knockout mice, vs vehicle-treated knockout), the “insulin level or glucose-handling in NNMT knockout mice” value was “no differences in insulin level or glucose-handling”. Further, the Fed glucose levels result in assay [5] (after 28 days, vehicle vs JBSNF-000088, wild-type or knockout) is “not different”. Moreover, the glucose tolerance entry in assay [5] (treated wild-type mice vs vehicle treated) was “improvement in glucose tolerance”. Also, in assay [5] (wild-type animals, one hour after last administration, 28-day treatment), the “plasma MNA” value is “significant reduction in plasma MNA”. In assay [5] (wild-type mice, four weeks, not statistically significant), the fed insulin levels result was “trend to reduced insulin levels”. Further, in assay [5] (wild-type or knockout animals, four weeks), the food intake entry is listed as “no change in food intake”. In the assay with Na+/K+ ATPase Pump, the “I% (antagonistic or inhibitory), Na+/K+ ATPase Pump” value came out at 0%.
